Laboratory results as given in US5175183A, “Lipoxygenase inhibiting compounds” (Abbott Laboratories, priority 1991, dated 1992).

Key:
[1] = biological target: T1, 5-lipoxygenase (Rattus norvegicus, UniProt P12527); test: In Vitro 5-lipoxygenase Inhibitory Activity (20,000×g supernatant from homogenized RBL-1 cells); type: biochemical; conditions: read-out: IC50 (concentration of compound producing 50% enzyme inhibition)
T1 construct: 20,000×g supernatant from homogenized RBL-1 cells; endogenous in cells; host or cells: RBL-1 cells (20,000×g supernatant of homogenate)
T1 sequence (P12527 1-673): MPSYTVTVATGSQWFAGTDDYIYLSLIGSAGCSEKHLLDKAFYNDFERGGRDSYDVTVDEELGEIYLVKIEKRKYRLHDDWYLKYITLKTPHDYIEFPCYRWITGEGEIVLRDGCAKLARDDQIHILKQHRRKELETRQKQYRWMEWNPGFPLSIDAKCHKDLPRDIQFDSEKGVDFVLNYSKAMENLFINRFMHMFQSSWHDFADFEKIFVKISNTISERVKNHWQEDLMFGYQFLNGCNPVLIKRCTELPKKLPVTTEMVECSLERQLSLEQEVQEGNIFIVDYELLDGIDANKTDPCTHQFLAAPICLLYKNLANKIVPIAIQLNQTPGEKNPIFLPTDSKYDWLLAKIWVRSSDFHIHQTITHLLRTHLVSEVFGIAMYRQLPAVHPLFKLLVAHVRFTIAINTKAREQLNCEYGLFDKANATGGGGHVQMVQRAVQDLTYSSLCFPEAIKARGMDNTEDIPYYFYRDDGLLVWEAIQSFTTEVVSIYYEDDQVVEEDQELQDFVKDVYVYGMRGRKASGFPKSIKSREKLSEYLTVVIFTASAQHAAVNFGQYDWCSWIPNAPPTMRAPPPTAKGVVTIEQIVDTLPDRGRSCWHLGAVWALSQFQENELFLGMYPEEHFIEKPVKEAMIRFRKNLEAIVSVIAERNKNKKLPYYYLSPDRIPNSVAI
Experimental: The compounds of this invention are potent inhibitors of 5-lipoxygenase. Their activity was determined using the 20,000×g supernatant from homogenized RBL-1 cells in a similar manner as that described by Dyer and coworkers (Dyer, R. D.; Haviv, F.; Hanel, A. M.; Bornemier, D. A.; Carter, G. W. Fed. Proc., Fed. Am. Soc. Exp. Biol. 1984, 43, 1462A). IC50 values (concentration of compound producing 50% enzyme inhibition) were calculated by linear regression analysius of percentage inhibition versus log inhibitor concentration plots.

[2] = system: Leukotriene Biosynthesis; test: In Vivo Inhibition of Leukotriene Biosynthesis (rat peritoneal anaphylaxis model); conditions: oral gavage 200 μmol/kg one hour prior to antigen challenge, peritoneal fluid leukotrienes 15 minutes after challenge, vs mean of control group
Experimental: Inhibition of the biosynthesis of leukotrienes in vivo after oral administration of compound was determined using a rat peritoneal anaphylaxis model. In this model rats were injected intraperitoneally (ip) with rabbit antibody to bovine serum albumin (BSA) and three hours later injected ip with BSA to induce an antigen-antibody response. Rats were sacrificed 15 minutes after this challenge and the peritoneal fluids were collected and analyzed for leukotriene levels. Test compound was administered by oral gavage one hour prior to the antigen challenge. Percent inhibition values were determined by comparing the treatment group to the mean of the control group.

Compound	IC50 [1] [µM]	Percent Inhibition With 200 μmol/kg oral dose [2] [%]
CN(O)C(=O)NCc1cccs1 [Example 6, N'-hydroxy-N'-methyl-N-[(thien-2-yl)methyl]urea]	3.6	67
N'-hydroxy-N'methoxy-N-[(1-naphth-2-yl)ethyl]urea [Example 5]	27	–
O=C(NO)N[C@@H]1C[C@H]1c1ccccc1 (relative stereo) [Example 11, N'-hydroxy-N-1-(trans-2-phenylcyclopropyl)urea]	28	–
CC(NC(=O)N(C)O)c1cc2ccccc2o1 (stereo not shown) [Example 10, N'-hydroxy-N'-methyl-N-[(1-benzofur-2-yl)-ethyl]urea]	0.27	50
CC(NC(=O)NO)c1ccc(OCc2ccccc2)cc1 (stereo not shown) [Example 1, N'-hydroxy-N-[1-(phenylmethoxyphenyl)ethyl]urea]	1.2	–
CC(NC(=O)NO)c1ccc2ccccc2c1 (stereo not shown) [Example 4, N'-hydroxy-N-[(1-naphth-2-yl)ethyl]urea]	4.6	–
CC(NC(=O)N(C)O)c1ccc(OCc2ccccc2)cc1 (stereo not shown) [Example 2, N'-hydroxy-N'-methyl-N-[1-(4-phenylmethoxyphenyl)ethyl]urea]	0.3	86
Cc1cc(C(C)NC(=O)N(C)O)c(C)s1 (stereo not shown) [Example 13, N'-hydroxy-N'-methyl-N-[1-(2,5-dimethylthien 3-yl)ethyl]urea]	0.5	49
Cc1cc(C(C)NC(=O)NO)c(C)s1 (stereo not shown) [Example 9, N'-hydroxy-N-[1-(2,5-dimethylthien-3-yl)ethyl]urea]	8.4	–
CC(NC(=O)NO)c1cc2ccccc2o1 (stereo not shown) [Example 7, N'-hydroxy-N-[(1-benzofuran-2-yl)ethyl]urea]	12.7	–
CCCCOc1ccc(C(C)NC(=O)NO)cc1 (stereo not shown) [Example 3, N'-hydroxy-N-[1-(4-butoxyphenyl)ethyl]urea]	3.8	–
O=C(NCc1ccsc1)N(O)CCO [Example 12, N'-hydroxy-N'-(2-hydroxyethyl)-N-[(thien-3-yl)-methyl]urea]	13	79
CN(O)C(=O)NCc1ccsc1 [Example 8, N'-hydroxy-N'-methyl-N-[(thienyl-3-yl)methyl]urea]	4	92
